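Briefly, cells in 96-well plates were exposed to five compound concentrations for 48 h, and endpoints were estimated by linear interpolation. GI50 marks 50% less growth. Definition used: TGI = concentration required for complete inhibition of growth.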
How the values were obtained:
Assay in all cases: inhibition of tumour cell growth, NCI panel, 48 h
OVCAR-4 ovarian = test system: OVCAR-4 ovarian
UO-31 renal = test system: UO-31 renal
HL-60(TB) leukemia = test system: HL-60(TB) leukemia
IGROV1 ovarian = test system: IGROV1 ovarian
RPMI-8226 leukemia = test system: RPMI-8226 leukemia
A549 NSCLC = test system: A549 NSCLC
CCRF-CEM leukemia = test system: CCRF-CEM leukemia
OVCAR-3 ovarian = test system: OVCAR-3 ovarian
NCI/ADR-RES ovarian = test system: NCI/ADR-RES ovarian
BT-549 breast = test system: BT-549 breast

`C/C=C/C(C/C=C(\C)CO[Si](C)(C)C(C)(C)C)O[Si](C)(C)C(C)(C)C` (configuration not stated) was tested, and the TGI (OVCAR-4 ovarian) was > 100 µM, the TGI (UO-31 renal) was > 100 µM and the TGI (HL-60(TB) leukemia) was > 100 µM. For the same molecule, the TGI (IGROV1 ovarian) was > 100 µM, the TGI (RPMI-8226 leukemia) was > 100 µM and the TGI (A549 NSCLC) was > 100 µM. The TGI (CCRF-CEM leukemia) was > 100 µM, the TGI (OVCAR-3 ovarian) was > 100 µM and the TGI (NCI/ADR-RES ovarian) was > 100 µM.

For `CCCCP1(=O)C=CC(Cl)=C(C)C1` (configuration not stated), the TGI (OVCAR-4 ovarian) was > 100 µM, the TGI (UO-31 renal) was > 100 µM and the TGI (HL-60(TB) leukemia) was > 100 µM. For the same molecule, the TGI (IGROV1 ovarian) was > 100 µM, the TGI (A549 NSCLC) was > 100 µM and the TGI (CCRF-CEM leukemia) was > 100 µM. For the same molecule, the TGI (OVCAR-3 ovarian) was > 100 µM.

`CC1(C)OC2OC(/C=C/[N+](=O)[O-])C3OC(C)(C)OC3C2O1` (configuration not stated) gave a TGI (OVCAR-4 ovarian) of 30.9 µM, a TGI (UO-31 renal) of 34.8 µM and a TGI (HL-60(TB) leukemia) of 10.8 µM. The TGI (IGROV1 ovarian) was > 74.4 µM, the TGI (A549 NSCLC) was 42.6 µM and the TGI (CCRF-CEM leukemia) was > 75.7 µM. For the same molecule, the TGI (OVCAR-3 ovarian) was 34.7 µM.

`C=CC(C)(C)[C@@]12CC3C(=O)N[C@@H](Cc4ccccc4)C(=O)N3[C@@H]1N(C(C)=O)c1ccccc12` (some centres not stated) was tested, and the TGI (OVCAR-4 ovarian) was 97.5 µM, the TGI (UO-31 renal) was > 100 µM and the TGI (HL-60(TB) leukemia) was 62.1 µM. For the same molecule, the TGI (IGROV1 ovarian) was > 100 µM, the TGI (RPMI-8226 leukemia) was > 100 µM and the TGI (A549 NSCLC) was > 100 µM. The TGI (CCRF-CEM leukemia) was > 100 µM and the TGI (OVCAR-3 ovarian) was > 100 µM.

Work on `COC(=O)N1C=Cc2c(c(C)c3c([nH]c4ccccc43)c2C)C1C` (configuration not stated) yielded a TGI (OVCAR-4 ovarian) of 26.1 µM, a TGI (UO-31 renal) of 34.2 µM and a TGI (HL-60(TB) leukemia) of 52 µM. The TGI (IGROV1 ovarian) was 48.7 µM, the TGI (RPMI-8226 leukemia) was 38.2 µM and the TGI (A549 NSCLC) was 42.2 µM. For the same molecule, the TGI (CCRF-CEM leukemia) was 54.4 µM and the TGI (OVCAR-3 ovarian) was 30.9 µM.

With `Cc1c(Cl)ccc2[s+]snc12` the TGI (OVCAR-4 ovarian) was > 100 µM, the TGI (UO-31 renal) was > 100 µM and the TGI (HL-60(TB) leukemia) was 43.7 µM. For the same molecule, the TGI (IGROV1 ovarian) was > 100 µM, the TGI (A549 NSCLC) was > 100 µM and the TGI (CCRF-CEM leukemia) was 82.6 µM. For the same molecule, the TGI (OVCAR-3 ovarian) was > 100 µM.

`C/C(=N\NC(N)=S)c1ccc(Oc2ccccc2)cc1` was tested, and the TGI (OVCAR-4 ovarian) was 16.8 µM, the TGI (HL-60(TB) leukemia) was 23 µM and the TGI (IGROV1 ovarian) was 12.5 µM. The TGI (RPMI-8226 leukemia) was 10.9 µM, the TGI (A549 NSCLC) was 74.4 µM and the TGI (CCRF-CEM leukemia) was 37.2 µM. It also gave a TGI (OVCAR-3 ovarian) of 22.9 µM.

With `O=C1C(=C2C(=O)c3ccccc3[N+]2=O)N([O-])c2ccccc21` the TGI (OVCAR-4 ovarian) was 31.7 µM, the TGI (UO-31 renal) was > 100 µM and the TGI (HL-60(TB) leukemia) was 48.5 µM. The TGI (IGROV1 ovarian) was > 100 µM, the TGI (RPMI-8226 leukemia) was 57.7 µM and the TGI (A549 NSCLC) was > 100 µM. It also gave a TGI (CCRF-CEM leukemia) of 63.8 µM and a TGI (OVCAR-3 ovarian) of 39.7 µM.

With `O=c1ccn([C@@H]2C[C@H](CO)CS(=O)C2)c(=O)[nH]1` (some centres not stated) the TGI (OVCAR-4 ovarian) was > 100 µM, the TGI (UO-31 renal) was > 100 µM and the TGI (HL-60(TB) leukemia) was > 100 µM. The TGI (IGROV1 ovarian) was > 100 µM, the TGI (RPMI-8226 leukemia) was > 100 µM and the TGI (A549 NSCLC) was > 100 µM. The TGI (CCRF-CEM leukemia) was > 100 µM and the TGI (OVCAR-3 ovarian) was > 100 µM.

Work on `CCn1c(O)c(C(=O)Nc2cccs2)c(=O)n(CC)c1=S` yielded a TGI (OVCAR-4 ovarian) of 70.9 µM, a TGI (HL-60(TB) leukemia) of 40 µM and a TGI (IGROV1 ovarian) of 60.9 µM. The TGI (RPMI-8226 leukemia) was 55.1 µM, the TGI (A549 NSCLC) was 49.8 µM and the TGI (CCRF-CEM leukemia) was > 100 µM. It also gave a TGI (OVCAR-3 ovarian) of 32.2 µM.

For `CCCCCCCCCCCCCCCCCCCCCCC(=O)N[C@H]1CCc2cc(OC)c(OC)c(OC)c2-c2ccc(SC)c(=O)cc21`, the TGI (OVCAR-4 ovarian) was > 100 µM, the TGI (UO-31 renal) was > 100 µM and the TGI (HL-60(TB) leukemia) was 48.9 µM. The TGI (IGROV1 ovarian) was > 100 µM, the TGI (A549 NSCLC) was > 100 µM and the TGI (CCRF-CEM leukemia) was > 100 µM. It also gave a TGI (OVCAR-3 ovarian) of 60.4 µM.

For `COc1ccc2c(c1)c(-c1nc(-c3cn(C)c4ncccc34)cs1)cn2CCCCN1CCCCC1`, the GI50 (BT-549 breast) was 1.64 µM, the TGI (BT-549 breast) was 3.05 µM and the GI50 (OVCAR-4 ovarian) was 1.83 µM. It also gave a TGI (OVCAR-4 ovarian) of 3.39 µM, a GI50 (UO-31 renal) of 1.43 µM and a TGI (UO-31 renal) of 2.77 µM. It also gave a GI50 (A549 NSCLC) of 1.74 µM, a TGI (A549 NSCLC) of 3.21 µM and a GI50 (OVCAR-3 ovarian) of 1.7 µM. For the same molecule, the TGI (OVCAR-3 ovarian) was 3.15 µM.

In the case of `C[C@H](O)CCC(=O)c1ccoc1`, the TGI (OVCAR-4 ovarian) is reported as > 100 µM, the TGI (UO-31 renal) is reported as > 100 µM and the TGI (HL-60(TB) leukemia) is reported as > 100 µM. For the same molecule, the TGI (IGROV1 ovarian) was > 100 µM, the TGI (RPMI-8226 leukemia) was > 100 µM and the TGI (A549 NSCLC) was > 100 µM. The TGI (CCRF-CEM leukemia) was > 100 µM and the TGI (OVCAR-3 ovarian) was > 100 µM.

`N#CCC1CCN(c2nc(Nc3ccc(N4CCC(O)CC4)cc3)c3c(=O)[nH]ncc3n2)CC1` was tested, and the GI50 (BT-549 breast) was 1.28 µM, the TGI (BT-549 breast) was > 100 µM and the GI50 (OVCAR-4 ovarian) was > 58.1 µM. The TGI (OVCAR-4 ovarian) was > 100 µM, the GI50 (UO-31 renal) was 0.259 µM and the TGI (UO-31 renal) was 4.67 µM. For the same molecule, the GI50 (IGROV1 ovarian) was 0.266 µM, the TGI (IGROV1 ovarian) was 2.95 µM and the GI50 (RPMI-8226 leukemia) was > 100 µM. The TGI (RPMI-8226 leukemia) was > 100 µM, the GI50 (A549 NSCLC) was 0.455 µM and the TGI (A549 NSCLC) was > 100 µM. For the same molecule, the GI50 (CCRF-CEM leukemia) was 1.01 µM, the TGI (CCRF-CEM leukemia) was > 100 µM and the TGI (OVCAR-3 ovarian) was > 100 µM.

`O=C(CC1(O)C(=O)Nc2ccc(Br)cc21)c1cccc([N+](=O)[O-])c1` (configuration not stated) was tested, and the TGI (OVCAR-4 ovarian) was 67.1 µM, the TGI (UO-31 renal) was > 100 µM and the TGI (HL-60(TB) leukemia) was 67.3 µM. For the same molecule, the TGI (RPMI-8226 leukemia) was 57.9 µM, the TGI (A549 NSCLC) was > 100 µM and the TGI (CCRF-CEM leukemia) was 99.6 µM. The TGI (OVCAR-3 ovarian) was > 100 µM.

`CCOc1ccc(-c2nc3ccc(-c4nc5ccc(N6CCN(C)CC6)cc5[nH]4)cc3[nH]2)cc1OCC` showed a GI50 (OVCAR-4 ovarian) of 2.19 µM, a TGI (OVCAR-4 ovarian) of 6.79 µM and a GI50 (UO-31 renal) of 12.4 µM. For the same molecule, the TGI (UO-31 renal) was 35.9 µM, the GI50 (HL-60(TB) leukemia) was 1.16 µM and the TGI (HL-60(TB) leukemia) was 4.7 µM. The GI50 (IGROV1 ovarian) was 1.94 µM, the TGI (IGROV1 ovarian) was 6.2 µM and the GI50 (RPMI-8226 leukemia) was 2.94 µM. For the same molecule, the TGI (RPMI-8226 leukemia) was 13.8 µM, the GI50 (A549 NSCLC) was 8.34 µM and the TGI (A549 NSCLC) was 28.5 µM. For the same molecule, the GI50 (CCRF-CEM leukemia) was 2.04 µM, the TGI (CCRF-CEM leukemia) was 22.8 µM and the GI50 (OVCAR-3 ovarian) was 0.648 µM. The TGI (OVCAR-3 ovarian) was 2.63 µM, the GI50 (NCI/ADR-RES ovarian) was > 100 µM and the TGI (NCI/ADR-RES ovarian) was > 100 µM.

With `O=C(c1ccccc1)N1CCc2c([nH]c3ccccc23)C1` the TGI (OVCAR-4 ovarian) was > 100 µM, the TGI (UO-31 renal) was 99.2 µM and the TGI (HL-60(TB) leukemia) was 43.1 µM. The TGI (IGROV1 ovarian) was > 100 µM, the TGI (RPMI-8226 leukemia) was 74.9 µM and the TGI (A549 NSCLC) was > 100 µM. The TGI (CCRF-CEM leukemia) was > 100 µM and the TGI (OVCAR-3 ovarian) was > 100 µM.

For `CCc1cccc(CC)c1NC1=CC(=O)C(=O)c2ccccc21`, the TGI (OVCAR-4 ovarian) was 27.8 µM, the TGI (UO-31 renal) was 46.9 µM and the TGI (HL-60(TB) leukemia) was > 100 µM. The TGI (IGROV1 ovarian) was 28.9 µM, the TGI (RPMI-8226 leukemia) was > 100 µM and the TGI (A549 NSCLC) was 37.8 µM. The TGI (CCRF-CEM leukemia) was > 100 µM and the TGI (OVCAR-3 ovarian) was 8.39 µM.
